Data published in patent US6562335B1, “NK-1 receptor antagonists for prevention of neurogenic inflammation in gene therapy” (Pfizer, Inc., priority 1995, dated 2003).

Target: T1, substance P (NK-1) receptor (Rattus norvegicus, UniProt P14600)
T1 construct: from tissue; host or cells: living Fischer F344 rats; read-out in trachea and main stem bronchi
Assay: Capsaicin-induced Evans blue extravasation in airways of rats inoculated endotracheally with Ad5CMVLacZ
Assay type: in vivo
Settings: Fischer F344 rats inoculated with Ad5CMVLacZ, 5 days after inoculation; pretreatment 4 mg/kg i.v., n=5; p>0.05 vs vector without pretreatment
Method: Pathogen-free Fischer F344 male rats (220-287 grams in weight, 12-14 weeks of age), under sodium pentobarotal anesthesia, received a localized endotracheal inoculation with 100 μL cf phosphate-buffered saline (PBS) containing 3×10^12 particles/mL of Ad5CMVLacZ, an adenovirus type 5 vector defective in the E1 and E3 regions of the viral genome and containing the LacZ transgene under the control of the CMV (cytomegalo virus) immediate early promoter. A control group of rats was inoculated with sterile PBS.
Five minutes after pretreatment, Evans blue dye (30 mg/kg i.v.) was injected into all the rats to measure the increase in vascular permeability associated with the neurogenic inflammation. Capsaicin (75 mg/kg i.v. over 2 min) was injected immediately after Evans blue to stimulate the sensory nerves in the airway mucosa. Five minutes after capsaicin, the rats were perfused through the heart with 100 mL of PBS. The trachea and main stem bronchi were removed and incubated in formamide (18 hours at 50° C.) to extract the extravasated tracer. The magnitude of the Evans blue extravasation was determined by spectrophotometric measurements of the optical density of formamide extracts.

T1 sequence (P14600 whole entry): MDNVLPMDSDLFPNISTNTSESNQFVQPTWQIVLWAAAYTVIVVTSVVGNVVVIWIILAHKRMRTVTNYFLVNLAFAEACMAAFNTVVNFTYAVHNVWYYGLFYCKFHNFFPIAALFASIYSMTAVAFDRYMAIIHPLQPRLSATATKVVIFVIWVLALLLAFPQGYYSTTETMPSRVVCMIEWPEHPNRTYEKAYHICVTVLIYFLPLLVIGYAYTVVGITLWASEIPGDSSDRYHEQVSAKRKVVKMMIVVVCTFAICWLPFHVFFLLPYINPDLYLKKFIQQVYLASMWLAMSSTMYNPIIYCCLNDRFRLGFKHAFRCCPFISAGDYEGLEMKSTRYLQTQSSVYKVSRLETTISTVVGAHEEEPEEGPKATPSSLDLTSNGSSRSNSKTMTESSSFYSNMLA

extravasation of Evans blue produced by capsaicin (trachea and main stem bronchi), mean ±SEM: 88.3 ± 5.8 ng/mg
SMILES: COc1ccccc1CN[C@@H]1CCCN[C@@H]1c1ccccc1 [compound B, (2R,3R)-2-phenyl-3-[(2-methoxyphenyl)methylamino]piperidine]
